According to US20250215052A1, “INHIBITORS OF PICK1 AND USES THEREOF” (University of Copenhagen, priority 2018, published 2025):

Tested on: PICK1
Assay: Peptide accumulation in striatal neurons with PICK1 knock down or replacement
Assay type: cell-based, rat
Details: 5 nM, 1 hour
Description: For shRNA-mediated knock down and replacement studies of PICK1, striatal neurons were transduced at 14 DIV with three different lentivirus; FUGWH1sh18GFPPICK1 (GFP-PICK1WT), FUGWH1sh18eGFP (GFP-sh18) or FUGWH1sh18deleGFP (GFP). The replacement plasmid GFP-PICK1WT expresses a short hairpin (sh18) that targets endogenous PICK1 and a resistant eGFP tagged PICK1. The GFP control vector (GFP) was created by removing the short hairpin (Holst et al., 2013, Jensen et al., 2018). Lentiviruses were produced as described previously (Rasmussen et al., 2009).
Neurons were rinsed in PBS and blocked in 0.05% Triton-X100 with 5% goat serum for 20 min-at room temperature. Subsequently, neurons were labelled with rabbit anti-DARRP32 (1:800) and chicken anti-GFP (1:2000) for 1 hour at room temperature, before incubation with 1:500 goat anti-rabbit Alexa-647 and goat anti-chicken Alexa-488 secondary antibodies.
Images for quantification of peptide were acquired with a Zeiss LSM 710 laser-scanning microscopy. Quantification of the TMR-TAT-P4-(C5)2 intensity was performed by defining each neuron as a region of interest. The mean intensity values obtained from each neuron were subsequently normalized to the average of the intensity values of the GFP transduced neurons

## TAMRA-YGRKKRRQRRR-PEG4-(HWLKV)2 [TMR-TAT-P4-(C5)2]
  peptide signal in sh18 + GFP-PICK1 neurons vs control (GFP): significantly increased
